Measurements: PubChem BioAssay (NCI)
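Assay format: 96-well plates, 48-hour exposure. GI50 is the concentration that inhibits growth by half. At the TGI there is no net growth.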

Tests used:
Experiment in all cases: inhibition of tumour cell growth, NCI panel, 48 h
IGROV1 ovarian = test system: IGROV1 ovarian
SF-268 CNS = test system: SF-268 CNS
SK-MEL-2 melanoma = test system: SK-MEL-2 melanoma
MDA-MB-435 = test system: MDA-MB-435
HOP-92 NSCLC = test system: HOP-92 NSCLC
UACC-62 melanoma = test system: UACC-62 melanoma
MCF7 breast = test system: MCF7 breast
MALME-3M melanoma = test system: MALME-3M melanoma
KM12 colon = test system: KM12 colon
DU-145 prostate = test system: DU-145 prostate
HCT-116 colon = test system: HCT-116 colon
MOLT-4 leukemia = test system: MOLT-4 leukemia
HT29 colon = test system: HT29 colon
HOP-62 NSCLC = test system: HOP-62 NSCLC
NCI-H226 lung = test system: NCI-H226 lung
EKVX NSCLC = test system: EKVX NSCLC
NCI-H522 lung = test system: NCI-H522 lung
SNB-75 CNS = test system: SNB-75 CNS
CCRF-CEM leukemia = test system: CCRF-CEM leukemia
M14 melanoma = test system: M14 melanoma
U251 CNS = test system: U251 CNS
OVCAR-5 ovarian = test system: OVCAR-5 ovarian
A498 renal = test system: A498 renal
K-562 leukemia = test system: K-562 leukemia
UACC-257 melanoma = test system: UACC-257 melanoma
OVCAR-3 ovarian = test system: OVCAR-3 ovarian
A549 NSCLC = test system: A549 NSCLC
PC-3 prostate = test system: PC-3 prostate
SN12C renal = test system: SN12C renal
HCC-2998 colon = test system: HCC-2998 colon
SK-MEL-5 melanoma = test system: SK-MEL-5 melanoma
BT-549 breast = test system: BT-549 breast
TK-10 renal = test system: TK-10 renal
SNB-19 CNS = test system: SNB-19 CNS
SW-620 colon = test system: SW-620 colon
OVCAR-8 ovarian = test system: OVCAR-8 ovarian
NCI-H23 lung = test system: NCI-H23 lung
UO-31 renal = test system: UO-31 renal
NCI/ADR-RES ovarian = test system: NCI/ADR-RES ovarian
SF-539 CNS = test system: SF-539 CNS
MDA-MB-231 breast = test system: MDA-MB-231 breast
SF-295 CNS = test system: SF-295 CNS
SK-OV-3 ovarian = test system: SK-OV-3 ovarian
ACHN renal = test system: ACHN renal
HS 578T breast = test system: HS 578T breast
RPMI-8226 leukemia = test system: RPMI-8226 leukemia
COLO 205 colon = test system: COLO 205 colon
RXF 393 renal = test system: RXF 393 renal
OVCAR-4 ovarian = test system: OVCAR-4 ovarian
SR leukemia = test system: SR leukemia
786-0 renal = test system: 786-0 renal
LOX IMVI melanoma = test system: LOX IMVI melanoma
NCI-H460 lung = test system: NCI-H460 lung
HCT-15 colon = test system: HCT-15 colon
T-47D breast = test system: T-47D breast
SK-MEL-28 melanoma = test system: SK-MEL-28 melanoma
HL-60(TB) leukemia = test system: HL-60(TB) leukemia
CAKI-1 renal = test system: CAKI-1 renal

Cc1nn(-c2ccccc2)c2ncnc(N/N=C/c3ccccc3O)c12
GI50 (IGROV1 ovarian): 0.597 µM
TGI (IGROV1 ovarian): 16.5 µM
GI50 (SF-268 CNS): 0.3 µM
TGI (SF-268 CNS): > 100 µM
GI50 (SK-MEL-2 melanoma): 0.633 µM
TGI (SK-MEL-2 melanoma): 47.1 µM
GI50 (MDA-MB-435): 0.544 µM
TGI (MDA-MB-435): > 100 µM
GI50 (HOP-92 NSCLC): 0.455 µM
TGI (HOP-92 NSCLC): 6.75 µM
GI50 (UACC-62 melanoma): 2.01 µM
TGI (UACC-62 melanoma): 12.1 µM
GI50 (MCF7 breast): 0.353 µM
TGI (MCF7 breast): 12.5 µM
GI50 (MALME-3M melanoma): 0.505 µM
TGI (MALME-3M melanoma): 11.8 µM
GI50 (KM12 colon): 0.382 µM
TGI (KM12 colon): > 100 µM
GI50 (DU-145 prostate): 0.318 µM
TGI (DU-145 prostate): > 100 µM
GI50 (HCT-116 colon): 0.422 µM
TGI (HCT-116 colon): 27.3 µM
GI50 (MOLT-4 leukemia): 0.28 µM
TGI (MOLT-4 leukemia): > 59 µM
GI50 (HT29 colon): 1.12 µM
TGI (HT29 colon): > 50 µM
GI50 (HOP-62 NSCLC): 0.288 µM
TGI (HOP-62 NSCLC): 6.23 µM
GI50 (NCI-H226 lung): 2.55 µM
TGI (NCI-H226 lung): 8.59 µM
GI50 (EKVX NSCLC): 0.391 µM
TGI (EKVX NSCLC): > 43.3 µM
GI50 (NCI-H522 lung): 0.416 µM
TGI (NCI-H522 lung): 44.9 µM
GI50 (SNB-75 CNS): 0.267 µM
TGI (SNB-75 CNS): 2.99 µM
GI50 (CCRF-CEM leukemia): 0.14 µM
TGI (CCRF-CEM leukemia): > 100 µM
GI50 (M14 melanoma): 0.27 µM
TGI (M14 melanoma): 1.64 µM
GI50 (U251 CNS): 0.425 µM
TGI (U251 CNS): > 49.5 µM
GI50 (OVCAR-5 ovarian): 3.85 µM
TGI (OVCAR-5 ovarian): > 100 µM
GI50 (A498 renal): 2.82 µM
TGI (A498 renal): 11.2 µM
GI50 (K-562 leukemia): 0.397 µM
TGI (K-562 leukemia): > 100 µM
GI50 (UACC-257 melanoma): 1.81 µM
TGI (UACC-257 melanoma): 31.1 µM
GI50 (OVCAR-3 ovarian): 0.306 µM
TGI (OVCAR-3 ovarian): 46.3 µM
GI50 (A549 NSCLC): 0.936 µM
TGI (A549 NSCLC): > 41.9 µM
GI50 (PC-3 prostate): 0.345 µM
TGI (PC-3 prostate): > 49.7 µM
GI50 (SN12C renal): 0.52 µM
TGI (SN12C renal): > 49.6 µM
GI50 (HCC-2998 colon): 0.793 µM
TGI (HCC-2998 colon): 35.2 µM
GI50 (SK-MEL-5 melanoma): 0.621 µM
TGI (SK-MEL-5 melanoma): 4.72 µM
GI50 (BT-549 breast): 0.996 µM
TGI (BT-549 breast): 41.9 µM
GI50 (TK-10 renal): 2.97 µM
TGI (TK-10 renal): > 70.6 µM
GI50 (SNB-19 CNS): 0.507 µM
TGI (SNB-19 CNS): > 100 µM
GI50 (SW-620 colon): 0.537 µM
TGI (SW-620 colon): > 96 µM
GI50 (OVCAR-8 ovarian): 0.354 µM
TGI (OVCAR-8 ovarian): > 100 µM
GI50 (NCI-H23 lung): 0.509 µM
TGI (NCI-H23 lung): 25.5 µM
GI50 (UO-31 renal): 0.325 µM
TGI (UO-31 renal): 2.85 µM
GI50 (NCI/ADR-RES ovarian): 0.331 µM
TGI (NCI/ADR-RES ovarian): 8.54 µM
GI50 (SF-539 CNS): 0.396 µM
TGI (SF-539 CNS): 7.13 µM
GI50 (MDA-MB-231 breast): 0.529 µM
TGI (MDA-MB-231 breast): 53.3 µM
GI50 (SF-295 CNS): 0.407 µM
TGI (SF-295 CNS): 11.7 µM
GI50 (SK-OV-3 ovarian): 0.465 µM
TGI (SK-OV-3 ovarian): 4.72 µM
GI50 (ACHN renal): 0.283 µM
TGI (ACHN renal): 40.4 µM
GI50 (HS 578T breast): 1.83 µM
TGI (HS 578T breast): > 100 µM
GI50 (RPMI-8226 leukemia): 0.394 µM
TGI (RPMI-8226 leukemia): 33.2 µM
GI50 (COLO 205 colon): 0.385 µM
TGI (COLO 205 colon): 22.9 µM
GI50 (RXF 393 renal): 0.882 µM
TGI (RXF 393 renal): 9.11 µM
GI50 (OVCAR-4 ovarian): 0.303 µM
TGI (OVCAR-4 ovarian): > 54.3 µM
GI50 (SR leukemia): 0.232 µM
TGI (SR leukemia): > 100 µM
GI50 (786-0 renal): 0.396 µM
TGI (786-0 renal): 27.7 µM
GI50 (LOX IMVI melanoma): 0.317 µM
TGI (LOX IMVI melanoma): 5.73 µM
GI50 (NCI-H460 lung): 0.382 µM
TGI (NCI-H460 lung): > 78.4 µM
GI50 (HCT-15 colon): 0.266 µM
TGI (HCT-15 colon): 17.5 µM
GI50 (T-47D breast): 1.92 µM
TGI (T-47D breast): 13.7 µM
GI50 (SK-MEL-28 melanoma): 0.481 µM
TGI (SK-MEL-28 melanoma): > 100 µM
GI50 (HL-60(TB) leukemia): 0.37 µM
TGI (HL-60(TB) leukemia): > 100 µM
GI50 (CAKI-1 renal): 0.943 µM
TGI (CAKI-1 renal): 8.86 µM
